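Where inhibition never reached the appropriate level, the endpoint shown equals the highest concentration tested. Otherwise, values were interpolated linearly from a five-concentration, 48-hour dose response in 96-well plates. At the GI50, growth is halved.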 Activity calls are given as the source filed them. Cut-off read from the data, not from the text of the source: active = GI50 up to about 1.1 µM and inactive = higher.
Legend:
Assay in all cases: NCI tumour cell line growth inhibition, 48 h
786-0 = tested on: 786-0
NCI-H226 = tested on: NCI-H226
SW-620 = tested on: SW-620
SN12C = tested on: SN12C
A549 = tested on: A549
UACC-62 = tested on: UACC-62
NCI-H460 = tested on: NCI-H460
HOP-92 = tested on: HOP-92
SNB-75 = tested on: SNB-75
HL-60 = tested on: HL-60
CCRF-CEM = tested on: CCRF-CEM
RPMI-8226 = tested on: RPMI-8226
SK-MEL-28 = tested on: SK-MEL-28
U-251 = tested on: U-251
CAKI-1 = tested on: CAKI-1
K562 = tested on: K562
SR = tested on: SR

Measured: GI50

Cc1cccc(/C=N/C23CC4CC(CC(C4)C2)C3)c1
inactive: 786-0 > 100 µM | NCI-H226 > 100 µM | SW-620 > 100 µM | SN12C > 100 µM | A549 > 100 µM | UACC-62 > 100 µM | NCI-H460 > 100 µM | HOP-92 > 100 µM | SNB-75 > 100 µM | HL-60 > 100 µM | CCRF-CEM > 100 µM | RPMI-8226 > 100 µM | SK-MEL-28 > 100 µM | U-251 > 100 µM | CAKI-1 > 100 µM | K562 > 100 µM

COC(=O)/C(C)=C/[N+](=O)[O-]
inactive: 786-0 17.7 µM | SW-620 5.38 µM | SN12C 20.7 µM | A549 21.7 µM | UACC-62 17.9 µM | NCI-H460 22.2 µM | HOP-92 9.53 µM | SNB-75 16.3 µM | HL-60 14.1 µM | CCRF-CEM 2.59 µM | RPMI-8226 2.77 µM | U-251 18.5 µM | CAKI-1 2.57 µM | K562 3.4 µM

CN1CCOC(c2ccccc2)O1 (stereo not given)
inactive: 786-0 > 100 µM | NCI-H226 > 100 µM | SW-620 > 100 µM | SN12C > 100 µM | A549 > 100 µM | UACC-62 > 100 µM | NCI-H460 > 100 µM | HOP-92 > 100 µM | SNB-75 > 100 µM | HL-60 > 100 µM | CCRF-CEM > 100 µM | RPMI-8226 > 100 µM | SK-MEL-28 > 100 µM | U-251 > 100 µM | CAKI-1 > 100 µM | SR > 100 µM | K562 > 100 µM

O=c1ccc2ccccc2c2ccccc12
inactive: 786-0 2.77 µM | NCI-H226 4.27 µM | SW-620 3.3 µM | SN12C 2.46 µM | A549 13.8 µM | UACC-62 2.27 µM | NCI-H460 3.98 µM | SNB-75 2.94 µM | HL-60 2.96 µM | CCRF-CEM 3.2 µM | RPMI-8226 2.23 µM | SK-MEL-28 5.46 µM | U-251 2.34 µM | CAKI-1 2.81 µM | SR 1.52 µM | K562 3.7 µM

Cc1cccc(NC(=O)C(=O)Cc2nc3ccccc3nc2O)c1C
inactive: 786-0 > 100 µM | NCI-H226 > 100 µM | SW-620 > 100 µM | SN12C > 100 µM | A549 > 100 µM | UACC-62 > 100 µM | NCI-H460 > 100 µM | HOP-92 > 100 µM | SNB-75 84.9 µM | HL-60 > 100 µM | CCRF-CEM > 100 µM | SK-MEL-28 > 100 µM | U-251 > 100 µM | CAKI-1 > 100 µM | SR > 100 µM | K562 > 100 µM

CCOC(=O)[C@@]12C(C)=CC(=O)O[C@]1(C)C[C@H]2C#N
inactive: 786-0 > 100 µM | NCI-H226 50.9 µM | SW-620 > 100 µM | SN12C > 100 µM | A549 > 100 µM | UACC-62 > 100 µM | NCI-H460 > 100 µM | HOP-92 > 100 µM | SNB-75 20.8 µM | HL-60 > 100 µM | CCRF-CEM > 100 µM | RPMI-8226 > 100 µM | SK-MEL-28 > 100 µM | U-251 > 100 µM | K562 > 100 µM

O=C1CC2CC=C[C@H]3c4cc5c(cc4C(=O)N1C23)OCO5 (stereo not given in full)
inactive: 786-0 > 50 µM | NCI-H226 > 50 µM | SW-620 > 50 µM | SN12C > 50 µM | A549 > 50 µM | UACC-62 > 50 µM | NCI-H460 > 50 µM | SNB-75 > 50 µM | HL-60 > 50 µM | CCRF-CEM > 50 µM | RPMI-8226 > 50 µM | SK-MEL-28 > 50 µM | U-251 > 50 µM | K562 > 50 µM

Nc1nc(N)c(-c2ccccc2)c(C(=O)Nc2ccc(Cl)c(Cl)c2)n1
inactive: 786-0 > 100 µM | NCI-H226 > 100 µM | SW-620 > 100 µM | SN12C > 100 µM | A549 > 100 µM | UACC-62 > 100 µM | NCI-H460 > 100 µM | HOP-92 > 100 µM | SNB-75 > 100 µM | HL-60 > 100 µM | RPMI-8226 46.8 µM | SK-MEL-28 > 100 µM | U-251 > 100 µM | CAKI-1 > 100 µM | K562 > 100 µM

O=c1[nH]c(=O)n(C2CC(O)C(CO)O2)cc1C#Cc1ccc(C(F)(F)F)cc1 (stereo not given)
inactive: 786-0 > 100 µM | NCI-H226 > 100 µM | SW-620 > 100 µM | SN12C > 100 µM | A549 > 100 µM | UACC-62 > 100 µM | NCI-H460 > 100 µM | HOP-92 23.9 µM | SNB-75 61.5 µM | HL-60 > 100 µM | CCRF-CEM > 100 µM | RPMI-8226 > 100 µM | SK-MEL-28 > 100 µM | U-251 > 100 µM | SR > 100 µM | K562 > 100 µM

O=C1C(c2ccccc2)=C(c2ccccc2)C(c2ccc(-c3ccc(C4=C(c5ccccc5)C(=O)C(c5ccccc5)=C4c4ccccc4)cc3)cc2)=C1c1ccccc1
inactive: 786-0 > 100 µM | NCI-H226 > 100 µM | SW-620 > 100 µM | SN12C > 100 µM | A549 > 100 µM | UACC-62 > 100 µM | NCI-H460 > 100 µM | HOP-92 > 100 µM | SNB-75 48.1 µM | HL-60 > 100 µM | CCRF-CEM > 100 µM | RPMI-8226 46.9 µM | U-251 > 100 µM | CAKI-1 > 100 µM | SR > 100 µM | K562 > 100 µM

O=C(N/N=C/c1cc(Cl)cc(Cl)c1O)c1ccncc1
inactive: 786-0 57.9 µM | NCI-H226 > 100 µM | SW-620 > 100 µM | SN12C > 100 µM | A549 > 100 µM | UACC-62 63 µM | NCI-H460 39 µM | SNB-75 > 100 µM | HL-60 26.4 µM | CCRF-CEM 31.2 µM | RPMI-8226 > 100 µM | SK-MEL-28 > 100 µM | U-251 92.3 µM | SR 39.1 µM | K562 > 100 µM

O=C1C=C(Nc2ccc(Cl)cc2C(=O)c2ccccc2)c2ccccc2C1=O
inactive: 786-0 > 100 µM | NCI-H226 > 100 µM | SW-620 > 100 µM | SN12C > 100 µM | A549 > 100 µM | UACC-62 > 100 µM | NCI-H460 > 100 µM | SNB-75 > 100 µM | HL-60 > 100 µM | CCRF-CEM > 100 µM | SK-MEL-28 > 100 µM | U-251 > 100 µM | CAKI-1 > 100 µM | K562 > 100 µM

O=c1c2ccccc2nc(-c2cccc(Cl)c2)n1NC1OC(CO)C(O)C(O)C1O (stereo not given)
inactive: 786-0 > 100 µM | NCI-H226 > 100 µM | SW-620 > 100 µM | SN12C > 100 µM | A549 > 100 µM | UACC-62 > 100 µM | NCI-H460 > 100 µM | HOP-92 > 100 µM | SNB-75 > 100 µM | HL-60 > 100 µM | CCRF-CEM 73.3 µM | RPMI-8226 > 100 µM | SK-MEL-28 > 100 µM | U-251 > 100 µM | CAKI-1 > 100 µM | K562 > 100 µM
